Experimental findings from patent publication US20260053778A1, “USE OF NOVEL PPAR ACTIVITY MODULATOR FOR PREVENTION, AMELIORATION OR TREATMENT OF DEGENERATIVE BRAIN DISEASES” (POSTECH RESEARCH AND BUSINESS DEVELOPMENT FOUNDATION, priority 2022, published 2026) are described below.

The subject of series [1] is BV2 microglial cell line. Nature of the series: Cytokine ELISA in BV2 microglia. The following applies: BV2 treated with LPS or Aβ aggregates, DTMB 24 h. Type of series: cell-based, mouse. The procedure: (§1) To confirm a more clear anti-inflammatory effect, the microglia cell line (BV2) and microglia isolated from mice were treated with lipopolysaccharide (LPS) and Aβ aggregates to induce an inflammatory response, and then DTMB was treated to measure the decrease in cytokine levels in microglia by DTMB treatment using ELISA.
The BV2 mouse microglia cell line was provided by Professor Seok Kyung-ho of Kyungpook National University. BV2 cells were cultured in a 5% CO2 incubator with a humidified atmosphere at 37° C. with Dulbecco's Modified Eagle Medium (DMEM) (Hyclone, Logan, UT, USA) containing 5% fetal bovine serum (FBS, Hyclone) and 50 μg/mL gentamicin (Lonza, Switzerland).
Cytokine levels (TNF-α, IL-1β, and IL-6) were measured in the media of BV2 microglia and primary microglia treated with LPS (1 μg/mL) and human Aβ1-42 (5 μg/mL). Human Aβ1-42 (AnaSpec, Fremont, CA, USA) was pre-aggregated in the culture medium for 24 h before cell treatment. BV2 cells and primary microglia were seeded in 12-well plates (SPL) at a density of 1× 10^5 cells/well in 1 mL of complete medium. After 12 h, cells were treated with LPS or human Aβ1-42 and further cultured with DTMB for 24 h. […]

Series [2] deals with primary microglia isolated from mouse. The series is described as follows: Cytokine ELISA in primary microglia. The class given is cell-based. The settings on record: primary microglia treated with LPS or Aβ aggregates, DTMB 24 h. Here is the method:
as §1
Primary microglial culture was performed as described in the literature [Lian H, Roy E, Zheng H. Protocol for primary microglial culture preparation. Bio-protocol. 2016; 6(21)]. Postnatal day 3 mice were used for primary microglial cell preparation. Newborn mouse pups were anesthetized on ice and then sacrificed. The isolated cortex and hippocampus were collected after removing the meninges. The brain tissues were dissociated by incubation with trypsin (2.5%) in HBSS (Gibco, Gaithersburg, MD, USA) for 15 min. The cell homogenate was then cultured in M-CSF (20 ng/mL, R&D Systems) supplemented with DMEM-F12 medium containing 10% fetal bovine serum, 10% horse serum, 1% GlutaMAX (Gibco, MD, USA), and 1% penicillin/streptomycin (Welgene, Korea). After 10 days, microglia were purified by shaking at 260 rpm for 2 h.
Cytokine levels (TNF-α, IL-1β, and IL-6) were measured in the media of BV2 microglia and primary microglia treated with LPS (1 μg/mL) and human Aβ1-42 (5 μg/mL). […]

Series [3] has as its system BV2 cell line. Nature of the series: Cell viability assay (MTT), BV2. The class given is cell-based, mouse. The settings on record: BV2, 48 h, at higher concentrations. The procedure: (§2) Cell viability was measured by a chromogenic assay that biologically reduces 3-(4,5-dimethyl-thiazol-2-yl)-2,5-diphenyltetrazolium bromide (MTT) to formazan in living cells. Briefly, cells were cultured in 96-well plates in a final volume of 100 μL. After 24 h, the culture medium was replaced with fresh medium containing DTMB compound, and the cells were cultured for another 48 h. Next, MTT (dissolved in PBS at 5 mg/mL) was added to the culture medium. The cells were cultured in the dark at 37° C. for 1 h, and then the supernatant was removed from the wells. The formazan crystals were dissolved by adding total MTT solvent (4 mM HCl and 0.1% Nonidet P-40, both dissolved in isopropanol), and the absorbance was measured at 570 nm using a microplate reader, Infinite 200 Pro NanoQuant microplate reader (TECAN, Switzerland).

Series [4] concerns RAW 264.7 cell line. Nature of the series: Cell viability assay (MTT), RAW 264.7. Type of series: cell-based. The following applies: RAW 264.7, 48 h, at higher concentrations. The procedure: as §2
In series [5] the target is T1, HIS-tagged recombinant PPAR α protein (Homo sapiens, UniProt Q07869).
T1 sequence (Q07869 239-466 limits assumed): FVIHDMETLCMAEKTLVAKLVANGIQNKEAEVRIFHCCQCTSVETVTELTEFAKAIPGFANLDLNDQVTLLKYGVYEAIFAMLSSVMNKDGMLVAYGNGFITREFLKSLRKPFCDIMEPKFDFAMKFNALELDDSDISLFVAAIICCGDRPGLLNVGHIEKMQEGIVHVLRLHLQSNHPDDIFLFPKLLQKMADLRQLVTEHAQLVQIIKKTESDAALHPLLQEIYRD
Nature of the series: CNBr-drug and protein binding experiment, PPARα. The following applies: Western blotting after 24 h incubation. The procedure: Since the computer prediction program predicted that DTMB binds to PPAR transcription factors, CNBr-drug and protein binding experiments were conducted to confirm whether DTMB actually binds to PPAR. To determine the actual degree of drug-protein binding, the reaction of the protein of the PPAR-α, β/δ, γ ligand-binding portion with the DTMB drug-bound CNBr beads was confirmed through Western blotting.
Specifically, CNBr Sepharose 4B beads were prepared and activated according to the instructions. 100 mg of CNBr-activated Sepharose 4B beads were incubated with drugs or DMSO at 4° C. for 18 h. The drug-bound beads reacted with HIS-tagged recombinant PPAR α, β/δ, and γ proteins. After 24 h of incubation, Western blotting experiments were performed to confirm whether the recombinant proteins bound to the drug-bound beads.

Series [6] concerns NF-κB. The series is described as follows: NF-κB gene expression by qPCR after MG132 and DTMB. The class given is cell-based. The settings on record: MG132 (20 μM) 6 hours, DTMB (25 μM) 24 hours. Here is the method:
In addition, to inhibit proteasomal degradation, cells were treated with MG132 (20 μM) for 6 hours and DTMB (25 μM) for 24 hours, and then the gene expression level of NF-κB was confirmed by qPCR analysis. As shown in the results of FIGS. 2L and 2M, this response was mediated by proteasomal degradation rather than transcriptional inhibition, since there was no change in the mRNA level of NF-κB.

With `COc1ccc(-c2cc(=O)oc3c(C)c(OC(=O)[C@H](Cc4c[nH]c5ccccc45)NC(=O)OC(C)(C)C)ccc23)cc1` [DTMB, [4-(4-Methoxyphenyl)-8-methyl-2-oxochromen-7-yl](2S)-3-(1H-indol-3-yl)-2-[(2-methylpropan-2-yl)oxycarbonylamino]propanoate], the “Level of IL-6” value in series [1] and in series [2] was “statistically significantly reduced” in each case. Moreover, the “Level of TNF-α” value in series [1] and in series [2] was “statistically significantly reduced” in each case. Also, the “Cytotoxicity (MTT)” value in series [3] and in series [4] was “no cytotoxicity” throughout. Further, the “Binding of PPARα ligand-binding protein to drug-bound CNBr beads” value in series [5] is listed as “binds to all subtypes of PPAR”. In addition, the “mRNA level of NF-κB” value in series [6] is on record as “no change”.
